Measured values published in patent US20260284074A1, “ENT1 Inhibitors in Combination with Checkpoint Inhibitors” (iTeos Belgium SA, priority 2023, published 2026).
pIC50: −log10 of the molar value.

Key:
MDA-MB-231 cells = assay: MDA-MB-231 subcutaneous tumor model in humanized NCG mice; type: in vivo, mouse; conditions: day 51; Compound 1 30 mg/kg i.p. twice a day; nivolumab 10 mg/kg i.p. every 5 days
Method: The anti-tumor therapeutic efficacy of Compound 1 monotherapy, nivolumab monotherapy, and Compound 1-nivolumab combination therapy was assessed in ‘humanized’ mice with subcutaneous tumors resulting from the subcutaneous injection of MDA-MB-231 cells, a human triple-negative breast cancer cell line.
Human cell line xenograft experiments were performed at Transcure (France) and all associated animal procedures were reviewed and approved by the local ethics committee. The experiment was carried out with the NOD-Prkdc^em26cd52Il2rg^em26cd22/NjuCrl immunodeficient mouse strain (NCG from Charles River Laboratories, Wilmington, MA, USA). Four-week-old immunodeficient NCG mice were engrafted with cord-blood-derived human CD34^+ hematopoietic stem and progenitor cells (French Blood Institute, Paris, France) 2 days after chemical myeloablative treatment. Fourteen weeks after cell injection, engraftment level was monitored with the analysis of human CD45^+ cells among total blood leukocytes by flow cytometry (Attune, Life Technologies/Thermo Fisher Scientific, Waltham, MA, USA). […]
All the animals used were monitored daily, checking their clinical signs of distress and body weight and tumors were measured three times a week using an electronic caliper. The tumor volume was determined by applying the formula Length×(Width)^2×0.5. […]

human T cells [1] = assay: [3H]adenosine uptake in activated human T cells; type: cell-based
Excerpt: Applicant observed that activated human T cells took up [3H]adenosine, and this uptake was reduced in the presence of the selective ENT1 inhibitor dilazep, confirming that ENT1 is the dominant transporter involved in adenosine uptake in T cells.
Human T cells were activated for 2 days in the presence of Compound 1 or dilazep. The cells were then washed and used in a [^3H]adenosine uptake experiment. […] (See FIG. 27A.)

human T cells [2] = assay: T cell proliferation by CFSE dilution in the presence of ATP; type: cell-based; conditions: human T cells activated in presence of 100 μM ATP, CFSE dilution, read-out: IC50, restoration of T cell proliferation
Method: Human T cells were activated in the presence of 100 μM ATP and dilazep or Compound 1 and proliferation was monitored by CarboxyFluoroscein Succinimidyl Ester (CFSE) dilution. […] (See FIG. 27B.)

[3] = Dynamic vapor sorption (DVS); type: physicochemical
Method: (§1) METHOD A: In Example 5, approximately 5-15 mg of sample was placed into a mesh vapor sorption balance pan and loaded into either a DVS Intrinsic or DVS Advantage dynamic vapor sorption balance by Surface Measurement Systems. The sample was subjected to a ramping profile from 40-90% relative humidity (RH) at 10% increments, maintaining the sample at each step until a stable weight had been achieved (dm/dt 0.004%, minimum step length 30 minutes, maximum step length 500 minutes) at 25° C. After completion of the sorption cycle, the sample was dried using the same procedure to 0% RH and then a second sorption cycle back to 40% RH was carried out. Two cycles were performed. The weight change during the sorption/desorption cycles were plotted, allowing the hygroscopic nature of the sample to be determined. XRPD analysis was then carried out on the residual solid.
as §1, with “B:” for “A:”, “1,” for “5,”, “10-20” for “5-15”, “determined.” for “determined. XRPD analysis was then carried out on the residual solid.”

nivolumab [anti-PD-1, reference compound]
Tumor volume compared with vehicle group (MDA-MB-231 cells): not statistically significantly different

COc1cc(C(=O)OCCCN2CCCN(CCCOC(=O)c3cc(OC)c(OC)c(OC)c3)CC2)cc(OC)c1OC [dilazep]
pIC50 (human T cells [1]; Homo sapiens, T-cell, T cells activated 2 days in presence of compound, washed, [3H]adenosine uptake, read-out: IC50, inhibition of uptake of adenosine into human T cells): 8.92 | [3H]adenosine uptake by activated human T cells (human T cells [1]; in the presence of the inhibitor): reduced | pIC50 (human T cells [2]): 8.62

COc1cc(C(=O)O[C@@H]2CCCOc3cc(cc(OC)c3OC)C(=O)NCCCN3CCCN(CC2)CC3)cc(OC)c1OC (single isomer, unassigned)
Moisture uptake (DVS) ([3]; RH raised to 80% from 10%, 25° C.): 1.7% | Moisture uptake (DVS) ([3]; between 0 and 10% RH, 25° C.): about 6.3%

COc1cc(C(=O)O[C@@H]2CCCOc3cc(cc(OC)c3OC)C(=O)NCCCN3CCCN(CC2)CC3)cc(OC)c1OC
Water uptake (DVS) ([3]; at 80% RH, second sorption cycle, after likely formation of amorphous material): 3.3% | Water uptake (DVS) ([3]; between 40-80% RH, first sorption cycle): 0.9% | Hygroscopicity (DVS) ([3]; first sorption cycle, 25° C.): slightly hygroscopic | Water uptake (DVS) ([3]; further uptake between 80-90% RH, first sorption cycle): 3.8%
